According to patent EP1712231A2 (priority 1998, dated 2000):
Marks after values point to notes of the source that are not given here.

Legend:
[1] = Table 1: tipranavir drug-drug interaction potential and routes of elimination of antiretrovirals; conditions: drug-drug interaction with tipranavir
[2] = Study 1: pharmacokinetic drug-drug interaction of tipranavir 1350 mg BID and ritonavir 500 mg BID, plasma levels by HPLC; type: in vivo, human; conditions: for CLPO / Cmin / Css: median (range)
Text: Twelve subjects were Caucasian and two were of African descent. Ten subjects completed all aspects of the study. Pharmacokinetic analyses were based on the results obtained in these subjects. […] Detection was by UV absorbance at 260 nm. […] Ritonavir and the internal standard (IS) were extracted from human plasma by liquid-liquid extraction with an ethyl acetate mixture.

[3] = Example 4: pharmacokinetic drug-drug interaction of tipranavir SEDDS 1250 mg BID and ritonavir oral solution 200 mg BID; type: in vivo, human
[4] = Study 2: pharmacokinetic drug-drug interaction of tipranavir 600 or 900 mg BID and ritonavir 100-500 mg BID, plasma levels by HPLC; type: in vivo, human; conditions: for CLPO / Cmin / Css / AUC / Cmax / Tmax: median (range); for half-life / AUC / Cmax / Tmax: both sexes, human, plasma, oral; for half-life: harmonic mean (range), read-out: t½ (converted)
Method: Both groups received their assigned dose of tipranavir continuously throughout the study period. […] The pharmacokinetics of tipranavir when coadministered with ritonavir were evaluated and compared with baseline data, while the ritonavir data were compared to historical data. The study was conducted in 19 healthy volunteers (16 males and 3 females) with a mean age of 30 years (range, 19-52 years), height of 177.1 cm (range, 162.6-190.5 cm), and weight of 76.7 kg (range, 57.3-95.0 kg). Eighteen subjects were Caucasian […]. […] Pharmacokinetic analyses were based on those subjects completing the baseline evaluation and at least one period of concomitant drug administration. […] Detection was by UV absorbance at 260 nm. […] Ritonavir and the internal standard (IS) were extracted from human plasma by liquid-liquid extraction with an ethyl acetate mixture.

[5] = Ritonavir 500 mg BID + Tipranavir 1350 mg BID, n=10
[6] = Ritonavir 500 mg BID alone, steady state, n=10
[7] = ritonavir 500 mg BID + tipranavir 1350 mg BID vs ritonavir alone
[8] = Ritonavir Oral Solution 200mg BID + Tipranavir SEDDS SEC 1250mg BID, median (range), N=21
[9] = ritonavir 200 mg BID + tipranavir 1250 mg BID vs 500-mg twice-daily ritonavir alone
[10] = Ritonavir 500 mg BID + Tipranavir 600 mg BID, N=7
[11] = Ritonavir 500 mg BID + Tipranavir 900 mg BID, N=6
[12] = ritonavir 500 mg BID + tipranavir 600 or 900 mg BID vs ritonavir alone

SMILES: Cc1cn([C@H]2C[C@H](N=[N+]=[N-])[C@@H](CO)O2)c(=O)[nH]c1=O [AZT, zidovudine]
- Potential for Clinically Significant Interaction [1]: Low

SMILES: Nc1nc(NC2CC2)c2ncn([C@H]3C=C[C@@H](CO)C3)c2n1 [Abacavir]
- Potential for Clinically Significant Interaction [1]: Low

SMILES: CC(C)CN(C[C@@H](O)[C@H](Cc1ccccc1)NC(=O)O[C@H]1CCOC1)S(=O)(=O)c1ccc(N)cc1 [Amprenavir]
- Potential for Clinically Significant Interaction [1]: High (and unfavorable)

SMILES: O=C1Nc2ccc(Cl)cc2[C@@](C#CC2CC2)(C(F)(F)F)O1 [Efavirenz]
- Potential for Clinically Significant Interaction [1]: Uncertain (Efavirenz is a possible CYP3A inducer)

SMILES: CC(C)(C)NC(=O)[C@@H]1CN(Cc2cccnc2)CCN1C[C@@H](O)C[C@@H](Cc1ccccc1)C(=O)N[C@H]1c2ccccc2C[C@H]1O [Indinavir]
- Potential for Clinically Significant Interaction [1]: High (and unfavorable)

SMILES: Cc1c(O)cccc1C(=O)N[C@@H](CSc1ccccc1)[C@H](O)CN1C[C@H]2CCCC[C@H]2C[C@H]1C(=O)NC(C)(C)C [Nelfinavir]
- Potential for Clinically Significant Interaction [1]: High (and unfavorable)

SMILES: Cc1ccnc2c1NC(=O)c1cccnc1N2C1CC1 [Nevirapine]
- Potential for Clinically Significant Interaction [1]: Uncertain

SMILES: C[C@H](Sc1nc(N)cc(Cl)n1)c1cc2ccoc2cn1 [PNU-142721]
- Potential for Clinically Significant Interaction [1]: Uncertain

SMILES: CC(C)c1nc(CN(C)C(=O)N[C@H](C(=O)N[C@@H](Cc2ccccc2)C[C@H](O)[C@H](Cc2ccccc2)NC(=O)OCc2cncs2)C(C)C)cs1 [Ritonavir, (2S,3S,5S)-5(N-(N-((N-Methyl-N-((2-isopropyl-4-thiazoly)methyl)amino)carbonyl)-L-valinyl)amino)-2-(N-((5-thiazoly)methoxycarbonyl)amino)-1,6-diphenyl-3-hydroxhexane, reference compound]
- CLPO [2, 5]: 26 (17-61) L/h
- Cmin [2, 5]: 0.10 (0.04-0.29) µg/mL
- Css [2, 5]: 1.6 (0.69-2.50) µg/mL
- t½ ([2]; Ritonavir 500 mg BID alone, harmonic mean (range), n=10): 2.9 (2.6-4.4) h
- CLPO [2, 6]: 5.1 (3.9-7.8) L/h
- Cmin [2, 6]: 1.9 (1.0-3.9) µg/mL
- Css [2, 6]: 8.4 (5.3-10.7) µg/mL
- half-life ([2]; both sexes, human, plasma, oral, 500 mg, read-out: t½ (converted)): 2.9 h
- decrease in mean steady-state ritonavir concentrations [2, 7]: ~5 fold
- decrease of median ritonavir Cmax value [2, 7]: 3.8 fold
- median ritonavir Cmin concentration, fold lower [2, 7]: more than 10 fold
- CLPO [3, 8]: 25.1 (8.4-73.1)* L/h
- Cmin [3, 8]: 0.035 (0.000-0.341)* µg/mL
- Css [3, 8]: 0.67 (0.23-1.99)* µg/mL
- apparent elimination half-life of ritonavir relative to ritonavir given alone ([3]; ritonavir 200 mg BID + tipranavir 1250 mg BID): decreased
- median ritonavir AUC, fold lower [3, 9]: 12 fold
- median ritonavir Cmax, fold lower [3, 9]: 10 fold
- median ritonavir Cmin, fold lower [3, 9]: 54 fold
- CLPO [4, 10]: 19 (11-31) L/h
- Cmin [4, 10]: 0.15 (0.08-0.53) µg/mL
- Css [4, 10]: 2.3 (1.4-3.7) µg/mL
- CLPO [4, 11]: 19 (12-27) L/h
- Cmin [4, 11]: 0.15 (0.09-0.62) µg/mL
- Css [4, 11]: 1.9 (1.6-3.4) µg/mL
- half-life [4, 10]: 1.8 h
- AUC [4, 10]: 27000 ng·h/mL
- Cmax [4, 10]: 7000 ng/mL
- Tmax [4, 10]: 3 h
- half-life [4, 11]: 1.8 h
- AUC [4, 11]: 26000 ng·h/mL
- Cmax [4, 11]: 5800 ng/mL
- Tmax [4, 11]: 3 h
- decrease in steady-state plasma ritonavir concentrations [4, 12]: ~4 fold
- median ritonavir Cmax values, fold lower [4, 12]: more than 2 fold
- median ritonavir Cmin values, fold lower [4, 12]: more than 10 fold
- Potential for Clinically Significant Interaction [1]: High (possibly favorable) (Ritonavir increases trough tipranavir concentrations; tipranavir expected to reduce ritonavir concentrations

SMILES: Nc1ccn([C@H]2CC[C@@H](CO)O2)c(=O)n1 [ddC]
- Potential for Clinically Significant Interaction [1]: Low

SMILES: O=c1[nH]cnc2c1ncn2[C@H]1CC[C@@H](CO)O1 [ddI]
- Potential for Clinically Significant Interaction [1]: Low
